For experiment [1], the target named is T1, human cannabinoid type-2 receptors (hCB2) (Homo sapiens, UniProt P34972).
T1 construct: expressed in transfected cells; host or cells: CHO cells (CHO-hCB2), membranes or intact cells
Briefly: Competition receptor binding with [3H]CP-55,940, CHO-hCB2 membranes. As to conditions: for displacement of [3H]CP-55,940 from hCB2Rs: single 1 μM concentration, 0.2 nM [3H]CP-55,940, CHO-hCB2. On the procedure: Membrane homogenates were prepared for competition receptor binding and [^35S]GTPγS binding studies by using pellets previously frozen of CHO-hCB1 or CHO-hCB2 cells as described in ([Franks et al., 2014]). In short, pellets were thawed on ice, combined in a 40 ml glass Dounce homogenizer and homogenized in 20 ml of cold buffer (50 mM HEPES at pH 7.4, 3 mM MgCl2, and 1 mM EGTA) using 10 strokes. Homogenates were then centrifuged at 40,000 × g for 10 min at 4°C. After discarding the supernatant, pellets were homogenized and centrifuged twice more. Final pellets were re-suspended in ice-cold 50 mM HEPES, pH 7.4, aliquoted and stored at -80°C for future use. Protein concentration was determined the same day, prior to freezing, using BCA^TM Protein Assay (Thermo Fisher Scientific, Waltham, MA, USA).
The final volume of each sample was 1 ml, containing 50 mM Tris-HCl buffer (pH 7.4), 0.05% bovine serum albumin, 5 mM MgCl2, increasing concentrations of non-radioactive competing SERM ligands, and either 100 μg of CHO-hCB1 or 50 μg of CHO-hCB2 membrane homogenates. Non-specific binding was defined by radioactivity remaining in the presence of 1 μM of the non-radioactive CB1/CB2 agonist WIN-55,212-2. Each sample condition was performed in triplicate and allowed to reach equilibrium at room temperature for 90 min. Reactions were terminated by rapid vacuum filtration through Whatman GF/B glass fiber filters (Brandel, Inc.), followed by four 4 ml washes of ice-cold filtration buffer (50 mM Tris at pH 7.4 and 0.05% BSA). Filter punches of individual samples were placed in scintillation vials containing 4 mls of ScintiverseTM BD cocktail scintillation fluid (Fisher Scientific, Pittsburg, PA, USA). Final counts were determined using liquid scintillation spectrophotometry (Tri Carb 2100 TR Liquid Scintillation Analyzer, Packard Instrument Company, Meriden, CT, USA) after overnight incubation.
(§1) Statistical analyses were conducted by utilizing GraphPad Prism v6.0g (GraphPad Software, Inc.; San Diego, CA, USA). IC50 values from competition receptor binding curves were derived by non-linear regression. Experimental IC50 values were converted to Ki values (a measure of receptor affinity) by using the Cheng–Prusoff equation ([Cheng and Prusoff, 1973]). Non-linear regression analysis of concentration-effect curves was also used to determine potency (ED50 or IC50) and efficacy (Emax or Imax) for modulation of GTPγS and adenylyl cyclase activity, respectively. All IC50, EC50, Ki, and Kb values were converted to pEC50, pIC50, pKi, and pKb values in order to permit use of parametric statistical analyses. For all experiments comparing three or more values, an one-way ANOVA was employed, followed by Dunnett’s or Tukey’s post hoc tests. For comparisons of two values, an unpaired t-test was utilized. To determine significant radioligand displacement or modulation of G-protein activity compared to basal levels, a one-sample t-test was employed.
For initial comparison of potential SERM binding to CBRs, 14 commercially available compounds from 5 structurally distinct classes (Figure 1) were subjected to a radioligand binding screen (Figure 2).
A general note: Displacement assays read how much labelled ligand stays bound in the presence of the test substance.

In experiment [2] the target is T1, human cannabinoid type-2 receptors (hCB2). Briefly: Antagonism of CP-55,940 inhibition of adenylyl cyclase, intact CHO-hCB2 cells. To be noted: for IMAX of CP-55,940 after pre-incubation with the drug / type of antagonism at hCB2Rs: CHO-hCB2 cells; for IMAX of CP-55,940 after pre-incubation with the drug: pre-incubation 30 min: OSP, NAF 10 μM, RAL, BAZ 2 μM, AM-630 1 μM; for type of antagonism at hCB2Rs: CP-55,940 inhibition of adenylyl cyclase. Format: cell-based. The method, then: Briefly, cells cultured between passages 4 and 15 were seeded into 24-well plates at a concentration of 6.5 million cells per plate and incubated overnight in a humidified incubator maintained at 37°C and 5% CO2. Growth media was removed the next day and replaced with media containing […] [^3H]adenine, 0.9g/L NaCl, and 0.5 mM isobutyl-methyl-xanthine (IBMX) for 2–3 h. Radioactive media was then removed and each well treated with 0.5 ml of varying concentrations of SERM compounds in a Krebs-Ringer-HEPES solution (10 mM HEPES, 110 mM NaCl, 25 mM Glucose, 55 mM Sucrose, 5 mM KCl, 1 mM MgCl2, 1.8 mM CaCl2, pH 7.4) containing 0.5 mM IBMX and 10 μM forskolin. Plates were then floated in a 37°C water bath for 15 min before reactions were terminated by addition of 50 μL of 2.2 N HCl to each well.
Reactions were then terminated by adding 50 μL of 2.2 N HCl to each well. [^3H]cAMP was isolated using alumina column chromatography and radioactivity quantified following addition of 10 mls of scintiverseTM BD cocktail scintillation fluid (Fisher Scientific, Pittsburg, PA, USA) by liquid scintillation spectrophotometry (Tri Carb 2100 TR Liquid Scintillation Analyzer, Packard Instrument Company, Meriden, CT, USA).
as §1, with “Experimental IC50 values were converted to Ki values (a measure of receptor affinity) by using the Cheng–Prusoff equation ([Cheng and Prusoff, 1973]).” left out
IC50 and Kb values were converted to pIC50 and pKb values (pIC50 = -Log[IC50] or pKb = -Log[Kb], respectively) to allow use of parametric statistics for comparison.

Setting [3] is: Ki, [3H]CP-55,940 Binding CHO-hCB2, CHO-hCB2 membranes, Cheng-Prusoff from IC50.

Usually Ki stands for a dissociation constant, usually derived from enzyme kinetics or from competition with a known ligand.

Each structure is given as a SMILES string. Read-outs that look alike come from different tables or passages of the source.

T1 sequence (P34972 whole entry): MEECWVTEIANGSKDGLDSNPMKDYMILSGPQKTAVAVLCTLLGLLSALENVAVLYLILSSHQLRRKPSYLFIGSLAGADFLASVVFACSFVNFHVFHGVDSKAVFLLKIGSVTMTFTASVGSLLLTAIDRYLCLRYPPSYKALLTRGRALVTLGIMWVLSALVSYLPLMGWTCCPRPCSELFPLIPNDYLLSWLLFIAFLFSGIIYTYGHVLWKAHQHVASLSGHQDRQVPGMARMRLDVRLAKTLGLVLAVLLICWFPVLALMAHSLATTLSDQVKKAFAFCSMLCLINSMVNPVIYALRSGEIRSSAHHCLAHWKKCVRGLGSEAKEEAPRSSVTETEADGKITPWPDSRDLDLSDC

Consider `O=C(c1ccc(OCCN2CCCCC2)cc1)c1c(-c2ccc(O)cc2)sc2cc(O)ccc12` [RAL, raloxifene], for which, in experiment [1] (setting [3]), the inhibition constant Ki is about 200 nM. For the same molecule, the affinity in experiment [1] (pKi, [3H]CP-55,940 Binding CHO-hCB2, CHO-hCB2 membranes, mean ± SEM), expressed as Ki, was 240 nM. Moreover, the “displacement of [3H]CP-55,940 from hCB2Rs” value in experiment [1] is given as 80%. In experiment [2], the “IMAX of CP-55,940 after pre-incubation with the drug” value (from here on “IMAX”) is given as 33.0 ± 1.3% and the “type of antagonism at hCB2Rs” value is reported as “surmountable antagonists”. Also, the Kb in experiment [2] (read-out: Kb (antagonist dissociation constant), CHO-hCB2) amounted to 66.5 nM.

`COc1ccc2c(c1)CCC(c1ccccc1)=C2c1ccc(OCCN2CCCC2)cc1` [NAF, nafoxidine]: the Ki in experiment [1] (CHO-hCB2 membranes, read-out: affinity for hCB2Rs (Ki)) fell in the range of 1000 to 4000 nM. This molecule also showed a Ki in experiment [1] (setting [3]) of 1300 nM. In addition, in experiment [2], the “IMAX” value stood at 32.3 ± 2.3% and the “type of antagonism at hCB2Rs” value is reported as “surmountable antagonists”. The Kb in experiment [2] (intact CHO-hCB2 cells, mean ± SEM, read-out: pKb, CHO-hCB2 (converted)) is 337 nM.

In experiment [1] (setting [3]), `OCCOc1ccc(/C(=C(/CCCl)c2ccccc2)c2ccccc2)cc1` [OSP, ospemifene] displayed a Ki of 3720 nM. Besides, the Ki in experiment [1] (affinity for hCB2Rs (Ki), CHO-hCB2 membranes) lay within 1000 to 4000 nM. Further, in experiment [2], the Kb worked out at 1260 nM, the “IMAX” value amounted to 31.7 ± 2.3% and the “type of antagonism at hCB2Rs” value was “surmountable antagonists”.

In experiment [1] (pKi, [3H]CP-55,940 Binding CHO-hCB2), `Cc1c(-c2ccc(O)cc2)n(Cc2ccc(OCCN3CCCCCC3)cc2)c2ccc(O)cc12` [BAZ, bazedoxifene] showed a Ki of 254 nM. Also, the “displacement of [3H]CP-55,940 from hCB2Rs” value in experiment [1] worked out at 73%. In experiment [2], the “IMAX” value was 28.8 ± 3.0^∗∗ % and the “type of antagonism at hCB2Rs” value is reported as “insurmountable antagonist”.
